# Experimental data published in patent publication US8569336B2, “Compounds for the treatment of inflammatory disorders” (priority 2008, dated 2013).
# Like-named read-outs stand apart in the source and are kept apart here.
# Columns and labels:
# [1] = molecular target: T1, purified catalytic domain of recombinant human TACE (rhTACEc) (Homo sapiens, UniProt P78536, N452Q/S266A); assay: TACE kinetic assay: cleavage of internally quenched peptide substrate TNF-FRET 2 (Ki); assay type: biochemical; settings: TNF-FRET 2 substrate
# T1 construct: 6xHis (C); made in house; host or cells: baculovirus/Hi5 insect cells
# T1 sequence (P78536 215-477 S266A/N452Q): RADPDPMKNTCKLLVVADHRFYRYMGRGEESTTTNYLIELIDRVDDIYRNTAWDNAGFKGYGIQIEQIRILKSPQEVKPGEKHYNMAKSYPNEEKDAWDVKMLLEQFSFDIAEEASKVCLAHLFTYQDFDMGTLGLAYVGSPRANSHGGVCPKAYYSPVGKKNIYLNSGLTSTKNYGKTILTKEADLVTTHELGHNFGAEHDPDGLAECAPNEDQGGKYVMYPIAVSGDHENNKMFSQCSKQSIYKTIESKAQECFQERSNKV
# [2] = tested on: TNF-α production from human whole blood; assay: Inhibition of TNF-α production from human whole blood (hWBA), LPS stimulated, ELISA; assay type: cell-based; settings: Homo sapiens, LPS-stimulated human whole blood, TNF-α by ELISA; read-out: hWBA (IC50)
compound,measurement,setting,value
COc1ccc2c(c1)C(=O)N(C[C@@]1(c3cc4nc(-c5c(C)noc5C)ccc4o3)NC(=O)NC1=O)C2 [Compound 1520],Ki,[1]; read-out: Ki,0.5 nM
same,IC50,[2],1190 nM
COc1ccc2c(c1F)C(=O)N(C[C@@]1(c3cc4nc(N5CC[C@@H](O)C5)ccc4o3)NC(=O)NC1=O)C2 [Compound 1521],Ki,[1]; read-out: Ki,0.3 nM
same,IC50,[2],169 nM
COc1ccc2c(c1F)C(=O)N(C[C@]1(C3=CC(c4ccccc4)N(C)O3)NC(=O)NC1=O)C2 (some centres unmarked) [Compound 1525],Ki,[1]; read-out: Ki,3.2 nM
same,IC50,[2],≥ 100000 nM
COc1ccc2c(c1)C(=O)N(C[C@]1(C3=CC(c4ccccc4)N(C)O3)NC(=O)NC1=O)C2 (some centres unmarked) [Compound 1526],Ki,[1]; read-out: Ki,2.5 nM
same,IC50,[2],≥ 100000 nM
COc1ccc2c(c1)C(=O)N(C[C@@]1(c3cc4nc(-c5cncc(C#N)c5)ccc4o3)NC(=O)NC1=O)C2 [Compound 1529],Ki,[1]; read-out: Ki,0.8 nM
same,IC50,[2],3660 nM
COc1ccc2c(c1)C(=O)N(C[C@@]1(c3cc4nc(N5C[C@@H](O)CC5=O)ccc4o3)NC(=O)NC1=O)C2 [Compound 1531],Ki,[1]; read-out: Ki,0.65 nM
same,IC50,[2],125 nM
COc1ccc2c(c1)C(=O)N(C[C@@]1(c3cc4nc(N(CCO)Cc5ccccn5)ccc4o3)NC(=O)NC1=O)C2 [Compound 1701],Ki,[1]; read-out: Ki,2.49 nM
same,IC50,[2],2210 nM
COc1ccc2c(c1)C(=O)N(C[C@@]1(c3cc4nc(N(CCO)CCN(C)C)ccc4o3)NC(=O)NC1=O)C2 [Compound 1702],Ki,[1]; read-out: Ki,3.96 nM
same,IC50,[2],1770 nM
COc1ccc2c(c1)C(=O)N(C[C@@]1(c3cc4nc(N(CCN(C)C)c5cn[nH]c5)ccc4o3)NC(=O)NC1=O)C2 [Compound 1704],Ki,[1]; read-out: Ki,0.86 nM
same,IC50,[2],274 nM
COc1ccc2c(c1F)C(=O)N(C[C@@]1(c3cc4nc(N5CCN(C)CC5)c(F)cc4o3)NC(=O)NC1=O)C2 [Compound 1710],Ki,[1]; read-out: Ki,1.08 nM
same,IC50,[2],218 nM
COc1ccc2c(c1F)C(=O)N(C[C@@]1(c3cc4nc(N5CCCNCC5)ccc4o3)NC(=O)NC1=O)C2 [Compound 1712],Ki,[1]; read-out: Ki,0.83 nM
same,IC50,[2],189 nM
COc1ccc2c(c1F)C(=O)N(C[C@@]1(c3cc4nc(N5CCCN(C)CC5)ccc4o3)NC(=O)NC1=O)C2 [Compound 1713],Ki,[1]; read-out: Ki,0.76 nM
same,IC50,[2],153 nM
COc1ccc2c(c1F)C(=O)N(C[C@@]1(c3cc4nc(N(CCN(C)C)c5cn[nH]c5)ccc4o3)NC(=O)NC1=O)C2 [Compound 1714],Ki,[1]; read-out: Ki,0.85 nM
same,IC50,[2],271 nM
COc1ccc2c(c1F)C(=O)N(C[C@@]1(c3cc4nc(N(c5cn[nH]c5)C5CCN(C)CC5)ccc4o3)NC(=O)NC1=O)C2 [Compound 1717],Ki,[1]; read-out: Ki,0.62 nM
same,IC50,[2],183 nM
COc1ccc2c(c1F)C(=O)N(C[C@@]1(c3cc4nc(-c5ccnc(N6CCN(C(=O)C(F)(F)F)CC6)c5)ccc4o3)NC(=O)NC1=O)C2 [Compound 1718],Ki,[1]; read-out: Ki,0.48 nM
same,IC50,[2],299 nM
COc1ccc2c(c1F)C(=O)N(C[C@@]1(c3cc4nc(-c5ccnc(N6CCNCC6)c5)ccc4o3)NC(=O)NC1=O)C2 [Compound 1719],Ki,[1]; read-out: Ki,0.24 nM
same,IC50,[2],148 nM
COc1ccc2c(c1)C(=O)N(C[C@@]1(c3cc4nc(-c5ccnc(N6CCNCC6)c5)ccc4o3)NC(=O)NC1=O)C2 [Compound 1720],Ki,[1]; Ki,0.31 nM
same,IC50,[2],224 nM
O=C1NC(=O)[C@](CN2Cc3ccc(O)c(F)c3C2=O)(c2cc3ncccc3o2)N1 [Compound 1721],Ki,[1]; Ki,1.64 nM
same,IC50,[2],> 10000 nM
COc1ccc2c(c1)C(=O)N(C[C@@]1(c3cc4nc(N(c5cn[nH]c5)C5CCNCC5)ccc4o3)NC(=O)NC1=O)C2 [Compound 1722],Ki,[1]; Ki,0.39 nM
same,IC50,[2],93 nM
COc1ccc2c(c1)C(=O)N(C[C@@]1(c3cc4nc(NC5CCNCC5)ccc4o3)NC(=O)NC1=O)C2 [Compound 1723],Ki,[1]; read-out: Ki,2.66 nM
same,IC50,[2],560 nM
COc1ccc2c(c1F)C(=O)N(C[C@@]1(c3cc4nc(N(c5cn[nH]c5)C5CCNCC5)ccc4o3)NC(=O)NC1=O)C2 [Compound 1724],Ki,[1]; read-out: Ki,1.31 nM
same,IC50,[2],185 nM
COc1ccc2c(c1F)C(=O)N(C[C@@]1(c3cc4nc(N5CCNCC5)ccc4o3)NC(=O)NC1=O)C2 [Compound 1725],Ki,[1]; read-out: Ki,0.6 nM
same,IC50,[2],97 nM
COc1ccc2c(c1F)C(=O)N(C[C@@]1(c3cc4nc(-c5ccc(N(C)C)nc5)ccc4o3)NC(=O)NC1=O)C2 [Compound 1726],Ki,[1]; read-out: Ki,1.49 nM
same,IC50,[2],> 10000 nM
CCN1CCCN(c2ccc3oc([C@]4(CN5Cc6ccc(OC)c(F)c6C5=O)NC(=O)NC4=O)cc3n2)CC1 [Compound 1727],Ki,[1]; read-out: Ki,0.048 nM
same,IC50,[2],154 nM
COc1ccc2c(c1F)C(=O)N(C[C@@]1(c3cc4nc(Nc5cccnc5)ccc4o3)NC(=O)NC1=O)C2 [Compound 1728],Ki,[1]; read-out: Ki,0.47 nM
same,IC50,[2],280 nM
COc1ccc2c(c1)C(=O)N(C[C@@]1(c3cc4nc(Nc5cn[nH]c5)ccc4o3)NC(=O)NC1=O)C2 [Compound 1729],Ki,[1]; read-out: Ki,0.43 nM
same,IC50,[2],211 nM
COc1ccc2c(c1F)C(=O)N(C[C@@]1(c3cc4nc(Nc5cn[nH]c5)ccc4o3)NC(=O)NC1=O)C2 [Compound 1730],Ki,[1]; read-out: Ki,0.6 nM
same,IC50,[2],175 nM
COc1ccc2c(c1)C(=O)N(C[C@@]1(c3cc4nc(Nc5cncc(F)c5)ccc4o3)NC(=O)NC1=O)C2 [Compound 1731],Ki,[1]; read-out: Ki,1.32 nM
same,IC50,[2],4140 nM
COc1ccc2c(c1)C(=O)N(C[C@@]1(c3cc4nc(Nc5ccc(-c6cn[nH]c6)cn5)ccc4o3)NC(=O)NC1=O)C2 [Compound 1732],Ki,[1]; read-out: Ki,1.91 nM
same,IC50,[2],333 nM
O=C1NC(=O)[C@](CN2Cc3ccc(O)cc3C2=O)(c2cc3ncccc3o2)N1 [Compound 1735],Ki,[1]; Ki,1.52 nM
same,IC50,[2],3830 nM
O=C1NC(=O)[C@](CN2Cc3ccc(O)c(I)c3C2=O)(c2cc3ncccc3o2)N1 [Compound 1736],Ki,[1]; read-out: Ki,53.5 nM
same,IC50,[2],> 10000 nM
C#Cc1c(O)ccc2c1C(=O)N(C[C@@]1(c3cc4ncccc4o3)NC(=O)NC1=O)C2 [Compound 1737],Ki,[1]; read-out: Ki,5.8 nM
same,IC50,[2],> 10000 nM
COc1ccc2c(c1Br)C(=O)N(C[C@@]1(c3cc4ncccc4o3)NC(=O)NC1=O)C2 [Compound 1738],Ki,[1]; read-out: Ki,1.4 nM
same,IC50,[2],> 10000 nM
COc1ccc2c(c1)C(=O)N(C[C@@]1(c3cc4c(ccc5sc(C)nc54)o3)NC(=O)NC1=O)C2 [Compound 1739],Ki,[1]; read-out: Ki,0.071 nM
same,IC50,[2],4530 nM
Cc1ccc2c(c1)C(=O)N(C[C@@]1(c3cc4ncccc4o3)NC(=O)NC1=O)C2 [Compound 1740],Ki,[1]; Ki,2.91 nM
same,IC50,[2],> 10000 nM
COc1ccc2c(c1F)C(=O)N(C[C@@]1(c3cc4c(ccc5sc(N)nc54)o3)NC(=O)NC1=O)C2 [Compound 1741],Ki,[1]; read-out: Ki,0.22 nM
same,IC50,[2],231 nM
Cn1cc(-c2ccc3c(c2)C(=O)N(C[C@@]2(c4cc5ncccc5o4)NC(=O)NC2=O)C3)cn1 [Compound 1742],Ki,[1]; read-out: Ki,3.63 nM
same,IC50,[2],3720 nM
COc1ccc2c(c1F)C(=O)N(C[C@@]1(c3cc4cc5sc(N)nc5cc4o3)NC(=O)NC1=O)C2 [Compound 1743],Ki,[1]; Ki,0.14 nM
same,IC50,[2],236 nM
COc1ccc2c(c1)C(=O)N(C[C@@]1(c3cc4nc(-c5cc[nH]c5)ccc4o3)NC(=O)NC1=O)C2 [Compound 1900],Ki,[1]; read-out: Ki,0.57 nM
same,IC50,[2],459 nM
COc1ccc2c(c1)C(=O)N(C[C@@]1(c3cc4nc(-c5cccc(O)c5)ccc4o3)NC(=O)NC1=O)C2 [Compound 1902],Ki,[1]; read-out: Ki,0.28 nM
same,IC50,[2],998 nM
COC(=O)c1ccc2oc([C@]3(CN4Cc5ccc(OC)c(F)c5C4=O)NC(=O)NC3=O)cc2n1 [Compound 1903],Ki,[1]; read-out: Ki,0.48 nM
same,IC50,[2],248 nM
COc1ccc2c(c1F)C(=O)N(C[C@@]1(c3cc4nc(C(N)=O)ccc4o3)NC(=O)NC1=O)C2 [Compound 1904],Ki,[1]; read-out: Ki,0.61 nM
same,IC50,[2],132 nM
CCNc1nnc(-c2ccc3oc([C@]4(CN5Cc6ccc(OC)cc6C5=O)NC(=O)NC4=O)cc3n2)o1 [Compound 1906],Ki,[1]; read-out: Ki,0.77 nM
same,IC50,[2],606 nM
COc1ccc2c(c1)C(=O)N(C[C@@]1(c3cc4nc(C(=O)NC5CCN(C)CC5)ccc4o3)NC(=O)NC1=O)C2 [Compound 1911],Ki,[1]; read-out: Ki,1.32 nM
same,IC50,[2],317 nM
COc1ccc2c(c1)C(=O)N(C[C@@]1(c3cc4ncc(CNCc5ccccc5)cc4o3)NC(=O)NC1=O)C2 [Compound 1912],Ki,[1]; read-out: Ki,2.24 nM
same,IC50,[2],3200 nM
COc1ccc2c(c1F)C(=O)N(C[C@@]1(c3cc4nc(N5CCOCC5)c(F)cc4o3)NC(=O)NC1=O)C2 [Compound 1913],Ki,[1]; Ki,0.53 nM
same,IC50,[2],657 nM
COc1ccc2c(c1)C(=O)N(CC1([C@H]3C[C@@H](c4ccccc4)C3)NC(=O)NC1=O)C2 (some centres unmarked) [Compound 1914],Ki,[1]; read-out: Ki,26.1 nM
same,IC50,[2],100000 nM
COc1ccc2c(c1)C(=O)N(CC1([C@H]3C[C@H](c4ccccc4)C3)NC(=O)NC1=O)C2 (some centres unmarked) [Compound 1915],Ki,[1]; read-out: Ki,9.99 nM
same,IC50,[2],100000 nM
CCNc1nnc(-c2ccc3oc([C@]4(CN5Cc6ccc(OC)c(F)c6C5=O)NC(=O)NC4=O)cc3n2)o1 [Compound 1916],Ki,[1]; read-out: Ki,0.81 nM
same,IC50,[2],308 nM
